Experimental data: PubChem BioAssay (NCI)
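Tested at 5 concentrations; 48 h exposure; 96-well plates; endpoints linearly interpolated, else capped at highest concentration. GI50 marks 50% less growth. Definition used: TGI = concentration required for complete inhibition of growth.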

Experiments:
Assay in all cases: NCI-60 cell line screen, 48 h
[1] = system: LOX IMVI melanoma
[2] = system: HCC-2998 colon
[3] = system: HCT-116 colon
[4] = system: HCT-15 colon
[5] = system: SW-620 colon
[6] = system: SK-MEL-28 melanoma
[7] = system: ACHN renal
[8] = system: A498 renal
[9] = system: SF-268 CNS
[10] = system: UACC-62 melanoma
[11] = system: SK-MEL-5 melanoma
[12] = system: OVCAR-3 ovarian
[13] = system: OVCAR-4 ovarian
[14] = system: K-562 leukemia
[15] = system: RPMI-8226 leukemia
[16] = system: SR leukemia
[17] = system: NCI-H522 lung
[18] = system: HOP-92 NSCLC
[19] = system: NCI/ADR-RES ovarian
[20] = system: NCI-H23 lung
[21] = system: TK-10 renal
[22] = system: OVCAR-8 ovarian
[23] = system: SK-OV-3 ovarian
[24] = system: EKVX NSCLC
[25] = system: SNB-19 CNS
[26] = system: MOLT-4 leukemia
[27] = system: SK-MEL-2 melanoma
[28] = system: CAKI-1 renal
[29] = system: A549 NSCLC
[30] = system: NCI-H226 lung
[31] = system: SNB-75 CNS
[32] = system: MDA-MB-231 breast
[33] = system: OVCAR-5 ovarian
[34] = system: SN12C renal
[35] = system: HL-60(TB) leukemia
[36] = system: T-47D breast
[37] = system: IGROV1 ovarian
[38] = system: MCF7 breast
[39] = system: MDA-MB-435
[40] = system: KM12 colon
[41] = system: SF-539 CNS
[42] = system: UO-31 renal
[43] = system: HOP-62 NSCLC
[44] = system: NCI-H460 lung
[45] = system: MALME-3M melanoma
[46] = system: BT-549 breast
[47] = system: COLO 205 colon
[48] = system: SF-295 CNS
[49] = system: 786-0 renal
[50] = system: U251 CNS
[51] = system: UACC-257 melanoma
[52] = system: M14 melanoma
[53] = system: CCRF-CEM leukemia
[54] = system: PC-3 prostate
[55] = system: HT29 colon
[56] = system: DU-145 prostate
[57] = system: HS 578T breast

What does the source list for `COc1ccc(CC(C)=C(c2ccc(OCCN3CCCC3)cc2)c2ccc(OCCN3CCCC3)cc2)cc1`?
GI50 [1]: 1.07 µM; TGI [1]: 3.94 µM; GI50 [2]: 2.46 µM; TGI [2]: 5.38 µM; GI50 [3]: 1.76 µM; TGI [3]: 5.25 µM; GI50 [4]: 1.28 µM; TGI [4]: 4.36 µM; GI50 [5]: 2.23 µM; TGI [5]: 5.25 µM; GI50 [6]: 3.6 µM; TGI [6]: 6.83 µM; GI50 [7]: 3.36 µM; TGI [7]: 6.48 µM; GI50 [8]: 3.01 µM; TGI [8]: 6.28 µM; GI50 [9]: 3.24 µM; TGI [9]: 6.7 µM; GI50 [10]: 4.02 µM; TGI [10]: 7.4 µM; GI50 [11]: 3.81 µM; TGI [11]: 7.05 µM; GI50 [12]: 2.68 µM; TGI [12]: 5.59 µM; GI50 [13]: 3.39 µM; TGI [13]: 6.9 µM; GI50 [14]: 0.497 µM; TGI [14]: 1.28 µM; GI50 [15]: 2.12 µM; TGI [15]: 9.37 µM; GI50 [16]: 0.483 µM; TGI [16]: 1.3 µM; GI50 [17]: 3.63 µM; TGI [17]: 7.6 µM; GI50 [18]: 0.773 µM; TGI [18]: 3.92 µM; GI50 [19]: 3.7 µM; TGI [19]: 7.08 µM; GI50 [20]: 3.49 µM; TGI [20]: 6.76 µM; GI50 [21]: 3.66 µM; TGI [21]: 7.28 µM; GI50 [22]: 3.64 µM; TGI [22]: 7.29 µM; GI50 [23]: 4.19 µM; TGI [23]: 7.93 µM; GI50 [24]: 3.68 µM; TGI [24]: 7.02 µM; GI50 [25]: 3.93 µM; TGI [25]: 7.32 µM; GI50 [26]: 2.07 µM; TGI [26]: 5.96 µM; GI50 [27]: 3.68 µM; TGI [27]: 6.97 µM; GI50 [28]: 4 µM; TGI [28]: 7.31 µM; GI50 [29]: 3.1 µM; TGI [29]: 7.39 µM; GI50 [30]: 3.2 µM; TGI [30]: 6.63 µM; GI50 [31]: 2.69 µM; TGI [31]: 5.74 µM; GI50 [32]: 3.25 µM; TGI [32]: 6.44 µM; GI50 [33]: 3.49 µM; TGI [33]: 6.68 µM; GI50 [34]: 3.49 µM; TGI [34]: 6.74 µM; GI50 [35]: 4.14 µM; TGI [35]: 8.53 µM; GI50 [36]: 3.13 µM; TGI [36]: 7.61 µM; GI50 [37]: 3.78 µM; TGI [37]: 7.16 µM; GI50 [38]: 0.841 µM; TGI [38]: 3.2 µM; GI50 [39]: 0.721 µM; TGI [39]: 2.57 µM; GI50 [40]: 3.49 µM; TGI [40]: 6.77 µM; GI50 [41]: 3.59 µM; TGI [41]: 6.84 µM; GI50 [42]: 2.79 µM; TGI [42]: 5.75 µM; GI50 [43]: 3.74 µM; TGI [43]: 7.93 µM; GI50 [44]: 3.15 µM; TGI [44]: 6.45 µM; GI50 [45]: 3.57 µM; TGI [45]: 6.81 µM; GI50 [46]: 3.04 µM; TGI [46]: 6.35 µM; GI50 [47]: 0.904 µM; TGI [47]: 4.55 µM; GI50 [48]: 4 µM; TGI [48]: 7.38 µM; GI50 [49]: 2.78 µM; TGI [49]: 6.05 µM; GI50 [50]: 1.81 µM; TGI [50]: 5.47 µM; GI50 [51]: 3.95 µM; TGI [51]: 7.59 µM; GI50 [52]: 0.722 µM; TGI [52]: 2.5 µM; GI50 [53]: 3.97 µM; TGI [53]: 11.9 µM; GI50 [54]: 2.99 µM; TGI [54]: 7.25 µM; GI50 [55]: 0.84 µM; TGI [55]: 3.31 µM; GI50 [56]: 3.32 µM; TGI [56]: 6.43 µM; GI50 [57]: 2.99 µM; TGI [57]: 7.17 µM
